Reference: US8617818B2, “Compositions and methods for diagnosis and prognosis of cancer and progression, and for screening anti-cancer agents” (Tufts Medical Center, priority 2009, dated 2013)

Test system: MCF10A cells
Assay: Transwell migration assay
Format: cell-based, human
Settings: TGFβ 20 ng/mL
Experimental: Transwell migration assays were performed according to Irie et al., 2005 J. Cell Biol. 171: 1023. MCF10A cells were transfected with a negative control siRNA designed to have no sequence similarity to a human transcript sequence (#AM4611) or siRNAs for Akt1 (#S660) or Akt2 (#S1216), or siRNAs for both Akt 1 and Akt2 (50 nM). Twenty four hours after transfection, cells were cultured overnight in assay medium (MCF10A growth medium containing 2% serum±TGFβ (20 ng/mL)). Sixteen hours later, cells were trypsinized and 10^5 cells were added to the top chambers of
24-well transwell plates (8 μm pore size; BD Bioscience, Bedford, Mass.). The bottom chambers were filled with assay medium. […] The significance of variability between a given group and its corresponding control was determined with the unpaired t test.
The mRNAs encoding Akt1 and Akt2, which are present in similar abundance in untransfected MCF10A cells (FIG. 10), were respectively knocked down by transfection with small interfering RNA (siRNA) directed against Akt1 or Akt2. […] After transfection with these siRNAs, the cells were analyzed for the abundance of Zeb1, Zeb2, and E-cadherin before and 24 hours after treatment with TGFβ. […] Parallel cultures of similarly treated cells were therefore used to measured cell migration by means of a Transwell cell migration assay.

For TGFβ, the “enhancement of cell migration” value (Akt1 siRNA-transfected MCF10A cells) was 22 times and the “enhancement of cell migration” value (untransfected MCF10A cells) was 7.7 times.
